According to patent US10189853B2, “Conformationally restricted 4-substituted-2,6-dimethylfuro[2,3-d]pyrimidines as anti-tumor agents” (DUQUESNE UNIVERSITY OF THE HOLY SPIRIT, priority 2014, dated 2019):
Read-outs that look alike come from different tables or passages of the source.

Columns and labels:
A431 cancer cells = assay: A431 cytotoxicity (cell proliferation); type: cell-based, human; conditions: Homo sapiens, A-431
PDGFR-β = PDGFR-β (Homo sapiens (Human), UniProt P09619); assay: PDGFR-β kinase inhibition, phosphotyrosine ELISA cytoblot; type: cell-based; conditions: SH-SY5Y cells, phosphotyrosine ELISA
Description: (§1) Cells used were tumor cell lines naturally expressing high levels of EGFR (A431), VEGFR-2 (U251), and PDGFR-β (SH-SYSY). […] The reaction was stopped and cells were permeabilized by quickly removing the media from the cells and adding ice-cold Tris-buffered saline (TBS) containing 0.05% Triton X-100, protease inhibitor cocktail and tyrosine phosphatase inhibitor cocktail. The TBS solution was then removed and cells fixed to the plate for 30 min at 60° C. and further incubation in 70% ethanol for an additional 30 min. Cells were further exposed to block (TBS with 1% BSA) for 1 h, washed, and then a horseradish peroxidase (HRP)-conjugated phosphotyrosine (PY) antibody was added overnight.

[1] = tested on: chicken embryo chorioallantoic membrane; assay: Chorioallantoic membrane (CAM) assay of angiogenesis; conditions: Gallus gallus, 48 h, read-out: CAM angiogenesis inhibition
[2] = tested on: cellular microtubules in A-10 cells; assay: Microtubule depolymerization, indirect immunofluorescence; type: cell-based; conditions: for EC50: A-10 cells, 18 h, read-out: EC50 for MT depolymerization in A-10 cells
Description: Evaluation of microtubule inhibition was performed using previously described methods.^22 Indirect immunofluorescence was used to evaluate the effects of the compounds on cellular microtubules as described previously.^38 Briefly, A-10 cells were treated for 18 h with vehicle (DMSO) or a compound, and microtubule effects were evaluated microscopically using β-tubulin antibody. The EC50 was calculated from 3 independent experiments and expressed as the mean±SD.

EGFR = EGFR (Homo sapiens (Human), UniProt P00533); assay: EGFR kinase inhibition, phosphotyrosine ELISA cytoblot; type: cell-based; conditions: A431 cells
Description: as §1

VEGFR-2 = VEGFR-2 (Homo sapiens (Human), UniProt P35968); assay: VEGFR-2 kinase inhibition, phosphotyrosine ELISA cytoblot; type: cell-based; conditions: U251 cells, phosphotyrosine ELISA
Description: as §1

purified tubulin = assay: Inhibition of tubulin assembly; type: biochemical; conditions: read-out: Inhibition tubulin assembly IC50 ± SD
SW-620 = assay: NCI 60 cell line panel; type: cell-based; conditions: Homo sapiens, Colon Cancer
TK-10 = assay: NCI 60 cell line panel; type: cell-based; conditions: Homo sapiens, Renal Cancer
OVCAR-3 = assay: NCI 60 cell line panel; type: cell-based; conditions: Homo sapiens, Ovarian cancer
COLO 205 = assay: NCI 60 cell line panel; type: cell-based; conditions: Homo sapiens, Colon Cancer
SK-MEL-2 = assay: NCI 60 cell line panel; type: cell-based; conditions: Homo sapiens
SK-OV-3 = assay: NCI 60 cell line panel; type: cell-based; conditions: Homo sapiens, Ovarian cancer
BT-549 = assay: NCI 60 cell line panel; type: cell-based; conditions: Homo sapiens
SNB-75 = assay: NCI 60 cell line panel; type: cell-based; conditions: Homo sapiens, CNS Cancer
NCI-H23 = assay: NCI 60 cell line panel; type: cell-based; conditions: Homo sapiens, NSCLC
SK-MEL-5 = assay: NCI 60 cell line panel; type: cell-based; conditions: Homo sapiens, Melanoma
RXF 393 = assay: NCI 60 cell line panel; type: cell-based; conditions: Homo sapiens, Renal Cancer
DU-145 = assay: NCI 60 cell line panel; type: cell-based; conditions: Homo sapiens, Prostate Cancer
K-562 = assay: NCI 60 cell line panel; type: cell-based; conditions: Homo sapiens, K562, Leukemia
CAKI-1 = assay: NCI 60 cell line panel; type: cell-based; conditions: Homo sapiens, Renal Cancer
OVCAR-5 = assay: NCI 60 cell line panel; type: cell-based; conditions: Homo sapiens, Ovarian cancer
MDA-MB-231/ATCC = assay: NCI 60 cell line panel; type: cell-based; conditions: Homo sapiens, Breast Cancer
SN 12C = assay: NCI 60 cell line panel; type: cell-based; conditions: Homo sapiens, SN12C, Renal Cancer
NCI/ADR-RES = assay: NCI 60 cell line panel; type: cell-based; conditions: Homo sapiens, Ovarian cancer
HT29 = assay: NCI 60 cell line panel; type: cell-based; conditions: Homo sapiens, HT-29, Colon Cancer
NCI-H522 = assay: NCI 60 cell line panel; type: cell-based; conditions: Homo sapiens, NSCLC
IGROV1 = assay: NCI 60 cell line panel; type: cell-based; conditions: Homo sapiens, IGROV-1, Ovarian cancer
HOP-62 = assay: NCI 60 cell line panel; type: cell-based; conditions: Homo sapiens, NSCLC
KM12 = assay: NCI 60 cell line panel; type: cell-based; conditions: Homo sapiens, Colon Cancer
[3] = tested on: M6/6 cells (SK-OV-3 expressing Pgp); assay: Antiproliferative SRB assay; conditions: M6/6 (Pgp) vs SKOV3
CCRF-CEM = assay: NCI 60 cell line panel; type: cell-based; conditions: Homo sapiens, Leukemia
OVCAR-4 = assay: NCI 60 cell line panel; type: cell-based; conditions: Homo sapiens, Ovarian cancer
HCT-15 = assay: NCI 60 cell line panel; type: cell-based; conditions: Homo sapiens, Colon Cancer
UACC-62 = assay: NCI 60 cell line panel; type: cell-based; conditions: Homo sapiens, Melanoma
NCI-H460 = assay: NCI 60 cell line panel; type: cell-based; conditions: Homo sapiens, NSCLC
MDA-MB-435 = assay: NCI 60 cell line panel; type: cell-based; conditions: Homo sapiens, Melanoma
ACHN = assay: NCI 60 cell line panel; type: cell-based; conditions: Homo sapiens, Renal Cancer
MCF7 = assay: NCI 60 cell line panel; type: cell-based; conditions: Homo sapiens, Breast Cancer
M14 = assay: NCI 60 cell line panel; type: cell-based; conditions: Homo sapiens, Melanoma
SF-295 = assay: NCI 60 cell line panel; type: cell-based; conditions: Homo sapiens, CNS Cancer
MDA-435 cells = assay: Antiproliferative SRB assay; type: cell-based; conditions: MDA435, 48 h, read-out: IC50 ± SD in MDA-435 cells
SF-268 = assay: NCI 60 cell line panel; type: cell-based; conditions: Homo sapiens, CNS Cancer
OVCAR-8 = assay: NCI 60 cell line panel; type: cell-based; conditions: Homo sapiens, Ovarian cancer
HCT-116 = assay: NCI 60 cell line panel; type: cell-based; conditions: Homo sapiens, Colon Cancer
HOP-92 = assay: NCI 60 cell line panel; type: cell-based; conditions: Homo sapiens, NSCLC
SNB-19 = assay: NCI 60 cell line panel; type: cell-based; conditions: Homo sapiens, CNS Cancer
HS 578T = assay: NCI 60 cell line panel; type: cell-based; conditions: Homo sapiens, Breast Cancer
HeLa cells = assay: Antiproliferative SRB assay; type: cell-based; conditions: Homo sapiens, HeLa, 48 h, read-out: IC50 ± SD in HeLa
LOX IMVI = assay: NCI 60 cell line panel; type: cell-based; conditions: Homo sapiens, Melanoma
786-0 = assay: NCI 60 cell line panel; type: cell-based; conditions: Homo sapiens
SR = assay: NCI 60 cell line panel; type: cell-based; conditions: Homo sapiens, Leukemia
SKOV3 cells = assay: Antiproliferative SRB assay; type: cell-based; conditions: Homo sapiens, SK-OV-3, 48 h, read-out: IC50 ± SD in SKOV3 cells
[4] = tested on: WTβ3 cells (HeLa overexpressing βIII tubulin); assay: Antiproliferative SRB assay; type: cell-based
MDA-MB-468 = assay: NCI 60 cell line panel; type: cell-based; conditions: Homo sapiens, Breast Cancer
HL-60(TB) = assay: NCI 60 cell line panel; type: cell-based; conditions: Homo sapiens, Leukemia
U251 = assay: NCI 60 cell line panel; type: cell-based; conditions: Homo sapiens, U-251, CNS Cancer
SF-539 = assay: NCI 60 cell line panel; type: cell-based; conditions: Homo sapiens, CNS Cancer
MOLT-4 = assay: NCI 60 cell line panel; type: cell-based; conditions: Homo sapiens, Leukemia
PC-3 = assay: NCI 60 cell line panel; type: cell-based; conditions: Homo sapiens, Prostate Cancer
EKVX = assay: NCI 60 cell line panel; type: cell-based; conditions: Homo sapiens, NSCLC

PDGFR-β, sequence (P09619 33-1106): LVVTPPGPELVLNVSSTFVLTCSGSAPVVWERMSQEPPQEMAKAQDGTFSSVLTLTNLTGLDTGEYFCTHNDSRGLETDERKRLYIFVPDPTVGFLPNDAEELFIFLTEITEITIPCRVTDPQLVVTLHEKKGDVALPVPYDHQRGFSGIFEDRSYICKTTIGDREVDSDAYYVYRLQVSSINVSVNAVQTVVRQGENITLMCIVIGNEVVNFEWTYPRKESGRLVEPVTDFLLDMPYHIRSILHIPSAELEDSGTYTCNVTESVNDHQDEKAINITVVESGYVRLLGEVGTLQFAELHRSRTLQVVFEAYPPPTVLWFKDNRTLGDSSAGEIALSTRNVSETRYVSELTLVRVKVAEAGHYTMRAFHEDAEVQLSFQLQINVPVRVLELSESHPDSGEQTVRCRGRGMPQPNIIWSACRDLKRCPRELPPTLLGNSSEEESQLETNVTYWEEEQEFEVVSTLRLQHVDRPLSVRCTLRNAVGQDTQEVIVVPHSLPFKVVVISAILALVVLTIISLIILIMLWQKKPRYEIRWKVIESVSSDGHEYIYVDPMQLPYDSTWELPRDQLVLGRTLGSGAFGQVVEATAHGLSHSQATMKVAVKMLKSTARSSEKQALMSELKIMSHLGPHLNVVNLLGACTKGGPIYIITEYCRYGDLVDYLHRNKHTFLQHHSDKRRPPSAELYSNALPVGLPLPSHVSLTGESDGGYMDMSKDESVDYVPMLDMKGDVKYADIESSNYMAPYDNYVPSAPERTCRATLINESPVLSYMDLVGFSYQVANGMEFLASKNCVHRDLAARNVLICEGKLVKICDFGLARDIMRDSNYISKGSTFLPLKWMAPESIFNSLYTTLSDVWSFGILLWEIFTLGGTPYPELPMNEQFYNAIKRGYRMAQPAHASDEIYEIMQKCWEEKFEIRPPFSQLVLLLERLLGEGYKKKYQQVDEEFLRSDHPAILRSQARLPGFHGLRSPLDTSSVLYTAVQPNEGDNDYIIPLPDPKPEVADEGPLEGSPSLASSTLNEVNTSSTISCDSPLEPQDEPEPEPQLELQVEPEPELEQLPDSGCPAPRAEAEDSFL
VEGFR-2, sequence (P35968 20-1356): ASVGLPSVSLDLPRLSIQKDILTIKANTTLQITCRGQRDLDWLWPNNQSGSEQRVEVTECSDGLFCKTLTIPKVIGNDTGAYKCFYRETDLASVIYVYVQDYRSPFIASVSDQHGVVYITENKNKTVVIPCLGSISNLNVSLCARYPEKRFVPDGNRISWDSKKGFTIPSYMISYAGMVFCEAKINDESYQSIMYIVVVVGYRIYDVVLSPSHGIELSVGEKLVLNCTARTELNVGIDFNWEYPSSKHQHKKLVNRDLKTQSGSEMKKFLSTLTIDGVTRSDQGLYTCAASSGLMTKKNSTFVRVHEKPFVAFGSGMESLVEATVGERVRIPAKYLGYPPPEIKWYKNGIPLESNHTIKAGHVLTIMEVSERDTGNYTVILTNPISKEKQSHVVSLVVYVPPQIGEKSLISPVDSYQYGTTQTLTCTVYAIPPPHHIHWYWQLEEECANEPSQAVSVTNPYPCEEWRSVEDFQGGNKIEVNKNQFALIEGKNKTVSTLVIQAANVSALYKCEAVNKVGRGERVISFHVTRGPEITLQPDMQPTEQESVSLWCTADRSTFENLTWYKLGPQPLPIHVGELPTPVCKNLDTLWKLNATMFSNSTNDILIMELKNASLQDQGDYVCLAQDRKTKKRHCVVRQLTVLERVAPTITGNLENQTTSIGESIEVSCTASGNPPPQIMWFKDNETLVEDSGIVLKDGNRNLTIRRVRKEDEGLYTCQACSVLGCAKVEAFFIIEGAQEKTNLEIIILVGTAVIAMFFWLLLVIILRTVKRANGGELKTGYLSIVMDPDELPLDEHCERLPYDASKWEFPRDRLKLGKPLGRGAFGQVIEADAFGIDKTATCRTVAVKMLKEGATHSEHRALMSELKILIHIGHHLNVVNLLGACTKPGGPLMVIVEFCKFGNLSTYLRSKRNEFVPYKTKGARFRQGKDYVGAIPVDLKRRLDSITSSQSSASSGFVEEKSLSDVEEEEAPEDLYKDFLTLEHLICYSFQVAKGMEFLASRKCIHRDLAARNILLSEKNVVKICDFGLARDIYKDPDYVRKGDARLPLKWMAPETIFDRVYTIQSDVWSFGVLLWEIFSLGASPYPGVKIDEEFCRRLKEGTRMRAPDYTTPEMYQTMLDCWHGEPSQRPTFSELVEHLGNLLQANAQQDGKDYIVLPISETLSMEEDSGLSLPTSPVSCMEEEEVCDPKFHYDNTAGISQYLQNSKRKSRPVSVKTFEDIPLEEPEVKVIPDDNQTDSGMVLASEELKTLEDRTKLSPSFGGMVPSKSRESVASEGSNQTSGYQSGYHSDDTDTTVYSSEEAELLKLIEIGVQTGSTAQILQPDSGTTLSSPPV
EGFR, sequence (P00533 25-1210): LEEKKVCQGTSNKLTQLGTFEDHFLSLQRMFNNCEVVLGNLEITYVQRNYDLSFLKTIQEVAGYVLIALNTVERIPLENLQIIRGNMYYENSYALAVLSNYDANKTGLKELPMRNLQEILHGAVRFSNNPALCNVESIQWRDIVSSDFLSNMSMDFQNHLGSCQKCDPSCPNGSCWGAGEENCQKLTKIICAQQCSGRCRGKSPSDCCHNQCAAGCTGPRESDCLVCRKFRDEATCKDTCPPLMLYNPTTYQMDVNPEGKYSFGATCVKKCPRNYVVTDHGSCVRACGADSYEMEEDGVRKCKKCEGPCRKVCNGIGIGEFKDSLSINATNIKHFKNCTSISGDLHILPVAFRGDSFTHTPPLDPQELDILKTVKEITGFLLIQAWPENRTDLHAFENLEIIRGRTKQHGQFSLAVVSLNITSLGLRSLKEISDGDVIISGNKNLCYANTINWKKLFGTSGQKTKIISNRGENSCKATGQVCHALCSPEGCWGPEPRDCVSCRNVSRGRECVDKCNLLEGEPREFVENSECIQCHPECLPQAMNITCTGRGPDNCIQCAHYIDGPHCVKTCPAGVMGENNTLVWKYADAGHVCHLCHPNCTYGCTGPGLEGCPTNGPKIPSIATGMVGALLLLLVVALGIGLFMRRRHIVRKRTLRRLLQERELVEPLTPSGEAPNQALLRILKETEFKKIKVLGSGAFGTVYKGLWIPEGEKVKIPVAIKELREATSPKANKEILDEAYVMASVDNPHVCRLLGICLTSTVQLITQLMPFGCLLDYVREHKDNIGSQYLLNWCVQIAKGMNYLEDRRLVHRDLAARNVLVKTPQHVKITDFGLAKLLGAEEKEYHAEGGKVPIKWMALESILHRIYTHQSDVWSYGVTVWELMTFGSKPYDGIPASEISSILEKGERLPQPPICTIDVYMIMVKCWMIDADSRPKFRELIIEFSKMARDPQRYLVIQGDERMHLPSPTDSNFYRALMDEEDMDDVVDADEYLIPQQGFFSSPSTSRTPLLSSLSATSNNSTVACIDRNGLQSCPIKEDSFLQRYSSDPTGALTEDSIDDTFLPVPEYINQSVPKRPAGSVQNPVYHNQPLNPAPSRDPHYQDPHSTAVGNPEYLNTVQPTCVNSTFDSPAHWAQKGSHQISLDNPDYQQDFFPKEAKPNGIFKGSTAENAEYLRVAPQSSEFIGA

Compound `COc1ccc(N(C)c2nc(C)nc3oc(C)cc23)c(OC)c1` [Compound 2, N-(2,4-dimethoxyphenyl)-N,2,6-trimethylfuro[2,3-d]pyrimidin-4-amine] has an IC50 (A431 cancer cells) of 0.0171 ± 0.002 µM.
In the case of `COc1cc(N(C)c2nc(C)nc3oc(C)cc23)cc(OC)c1OC` [Compound 4, N,2,6-trimethyl-N-(3,4,5-trimethoxyphenyl)furo[2,3-d]pyrimidin-4-amine], the IC50 (PDGFR-β) is reported as 0.166 ± 0.0202 µM, the IC50 [1] is reported as greater than 300 µM and the EC50 ([2]; Rattus norvegicus, A10) is reported as greater than 10 µM. It also gave an IC50 (A431 cancer cells) greater than 0.3 µM.
Compound `COc1ccc2c(ccn2-c2nc(C)nc3oc(C)cc23)c1` [Compound 9, 4-(5-methoxy-1H-indol-1-yl)-2,6-dimethylfuro[2,3-d]pyrimidine] has an IC50 [1] greater than 300 µM, an EC50 ([2]; Rattus norvegicus, A10) greater than 10 µM and an IC50 (A431 cancer cells) greater than 0.3 µM.
For `Cc1nc(N(C)c2ccc3c(c2)OCO3)c2cc(C)oc2n1` [Compound 5, N-1,3-benzodioxol-5-yl-N,2,6-trimethylfuro[2,3-d]pyrimidin-4-amine], the IC50 (PDGFR-β) was 0.0501 ± 0.0078 µM, the IC50 (EGFR) was 0.298 ± 0.0381 µM and the EC50 ([2]; Rattus norvegicus, A10) was greater than 10 µM. The IC50 (A431 cancer cells) was 0.0489 ± 0.0051 µM and the IC50 (VEGFR-2) was 0.0199 ± 0.0021 µM.
For `COc1ccc(N(C)c2nc(C)nc3oc(C)cc23)cc1` [Compound 1, reference compound], the EC50 [2] was 0.103 µM and the IC50 (purified tubulin) was 2.4 ± 0.01 µM.
Work on `Cc1nc(N(C)c2ccc3c(c2)CCO3)c2cc(C)oc2n1` [Compound 6, N-(2,3-dihydro-1-benzofuran-5-yl)-N,2,6-trimethylfuro[2,3-d]pyrimidin-4-amine] yielded a GI50 (SW-620) of 0.0416 µM, a GI50 (TK-10) of 0.0502 µM and a GI50 (OVCAR-3) of 0.0245 µM. It also gave a GI50 (COLO 205) of 0.0403 µM, a GI50 (SK-MEL-2) of 0.0264 µM and a GI50 (SK-OV-3) of 0.0376 µM. The GI50 (BT-549) was 0.0772 µM, the GI50 (SNB-75) was 0.0304 µM and the GI50 (NCI-H23) was 0.0439 µM. It also gave a GI50 (SK-MEL-5) of 0.0314 µM, a GI50 (RXF 393) of 0.0212 µM and a GI50 (DU-145) of 0.0441 µM. It also gave a GI50 (K-562) of 0.0317 µM, a GI50 (CAKI-1) of 0.0401 µM and a GI50 (OVCAR-5) of 0.262 µM. The GI50 (MDA-MB-231/ATCC) was 0.148 µM, the GI50 (SN 12C) was 0.0972 µM and the GI50 (NCI/ADR-RES) was 0.0265 µM. The GI50 (HT29) was 0.0324 µM, the GI50 (NCI-H522) was 0.0129 µM and the GI50 (IGROV1) was 0.0629 µM. The GI50 (HOP-62) was 0.0396 µM, the GI50 (KM12) was 0.0401 µM and the “Rr value (relative resistance)” value [3] was 1.3. It also gave a GI50 (CCRF-CEM) of 0.0581 µM, a GI50 (OVCAR-4) of 0.0834 µM and a GI50 (HCT-15) of 0.0389 µM. For the same compound, the GI50 (UACC-62) was 0.0613 µM, the GI50 (NCI-H460) was 0.042 µM and the IC50 (EGFR) was 0.226 ± 0.0502 µM. The GI50 (MDA-MB-435) was 0.014 µM, the GI50 (ACHN) was 0.0642 µM and the GI50 (MCF7) was 0.0402 µM. It also gave a GI50 (M14) of 0.0348 µM, a GI50 (SF-295) of 0.0305 µM and an IC50 (MDA-435 cells) of 0.0962 ± 0.013 µM. For the same compound, the GI50 (SF-268) was 0.0139 µM, the GI50 (OVCAR-8) was 0.063 µM and the “effect on cellular microtubules” value ([2]; in words) was “dose-dependent loss of cellular microtubules”. It also gave a GI50 (HCT-116) of 0.0451 µM, a GI50 (HOP-92) of 0.0458 µM and a GI50 (SNB-19) of 0.0565 µM. The GI50 (HS 578T) was 0.031 µM, the IC50 (HeLa cells) was 0.105 ± 0.0058 µM and the GI50 (LOX IMVI) was 0.0456 µM. For the same compound, the GI50 (786-0) was 0.0804 µM, the GI50 (SR) was 0.0366 µM and the IC50 (SKOV3 cells) was 0.12 ± 0.005 µM. For the same compound, the IC50 ([4]; Homo sapiens, HeLa, SRB, 48 h, read-out: IC50 ± SD in WTβ3) was 0.094 ± 0.007 µM, the “Rr value (relative resistance)” value ([4]; WTβ3 vs HeLa) was 0.9 and the GI50 (MDA-MB-468) was 0.0221 µM. The GI50 (HL-60(TB)) was 0.0276 µM, the IC50 (A431 cancer cells) was 0.0383 ± 0.0042 µM and the IC50 (VEGFR-2) was 0.0067 ± 0.00081 µM. The GI50 (U251) was 0.0397 µM, the GI50 (SF-539) was 0.0316 µM and the GI50 (MOLT-4) was 0.0767 µM. It also gave a GI50 (PC-3) of 0.0522 µM and a GI50 (EKVX) of 0.07 µM.
